Results published in patent US11530244B2, “Cyclic polypeptides for PCSK9 inhibition” (priority 2018, dated 2022).
Starred links: 1 amine or outer side, 2 acyl side, 3 side chain; linkers in the order of their positions; H or OH if unused. Positions of bridges follow the written chain, without caps; N, C: chain ends. Non-standard residues stand in square brackets, D forms with d. Residues, ends and D or L forms follow the SMILES beside them. ξ: configuration not given here. Phe(3-CH2NH2) = O=C([C@H](Cc1cccc(CN[*:3])c1)N[*:1])[*:2]; X5 = O=C([C@@H]1C[C@H](SCc2ccc(C[*:3])cc2)CN1[*:1])[*:2]; NHCH2(1,3-C6H4)CH2CO = O=C(Cc1cccc(CN[*:1])c1)[*:2]; Pro(cis-4-OPh) = O=C(O)[C@@H]1C[C@H](Oc2ccccc2)CN1; Pro(cis-4-CF3) = O=C(O)[C@@H]1C[C@H](C(F)(F)F)CN1; Trp(5-F) = N[C@@H](Cc1c[nH]c2ccc(F)cc12)C(=O)O; Phe(4-CH2NH2) = NCc1ccc(C[C@H](N)C(=O)O)cc1; ξPhe(4-COOH) = NC(Cc1ccc(C(=O)O)cc1)C(=O)O; isoGln = NC(=O)[C@H](CCC(=O)[*:2])N[*:1]; Nle(6-COOH) = N[C@@H](CCCCC(=O)O)C(=O)O; X4 = O=C(CCSCc1cccc(CSCCN[*:1])c1)[*:2]; γGlu = O=C(O)[C@H](CCC(=O)[*:2])N[*:1]; mXylylene = c1cc(C[*:1])cc(C[*:2])c1; AEF = NCCOc1ccc(C[C@H](N)C(=O)O)cc1; NMeY = CN[C@@H](Cc1ccc(O)cc1)C(=O)O; d(aThr) = C[C@@H](O)[C@@H](N)C(=O)O; Glutaryl = O=C(CCCC(=O)[*:2])[*:1]; X7 = O=C(Cc1ccc(CN[*:1])cc1)[*:2]; X8 = Clc1cc(C[*:1])cc(C[*:2])c1; aThr = C[C@H](O)[C@H](N)C(=O)O; αMeP = C[C@@]1(C(=O)O)CCCN1; dOrn = NCCC[C@@H](N)C(=O)O; hSer = N[C@@H](CCO)C(=O)O; X2 = O=C(C[*:2])[*:1]; Mpa = O=C(O)CCS

Assays:
Type in all cases: binding
[1] = target: human PCSK9 / human LDLR EGFa domain interaction (Homo sapiens (Human), UniProt Q8NBP7); assay: TR-FRET assay of inhibition of the PCSK9-LDLR protein-protein interaction; conditions: TR-FRET, 20 nM human PCSK9, 20 nM human LDLR EGFa domain, 2 hours room temperature; read-out: IC50
human PCSK9 / human LDLR EGFa domain interaction, sequence (Q8NBP7 153-692): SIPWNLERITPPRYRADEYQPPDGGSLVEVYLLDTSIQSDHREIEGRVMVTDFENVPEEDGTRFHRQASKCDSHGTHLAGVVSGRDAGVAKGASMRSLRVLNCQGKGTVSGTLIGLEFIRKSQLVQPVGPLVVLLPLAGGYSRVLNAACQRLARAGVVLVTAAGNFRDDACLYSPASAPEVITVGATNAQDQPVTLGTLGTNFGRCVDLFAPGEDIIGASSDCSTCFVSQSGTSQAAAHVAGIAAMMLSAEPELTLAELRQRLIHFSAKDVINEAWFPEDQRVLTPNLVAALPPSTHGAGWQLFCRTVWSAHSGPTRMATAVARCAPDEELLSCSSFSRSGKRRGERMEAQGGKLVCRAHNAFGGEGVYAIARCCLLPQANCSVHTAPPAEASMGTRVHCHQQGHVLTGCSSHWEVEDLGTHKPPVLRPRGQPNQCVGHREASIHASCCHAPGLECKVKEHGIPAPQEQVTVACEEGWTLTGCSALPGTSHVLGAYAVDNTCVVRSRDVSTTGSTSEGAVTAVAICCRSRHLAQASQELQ
human PCSK9 / human LDLR EGFa domain interaction, sequence (Q8NBP7 31-152 partner): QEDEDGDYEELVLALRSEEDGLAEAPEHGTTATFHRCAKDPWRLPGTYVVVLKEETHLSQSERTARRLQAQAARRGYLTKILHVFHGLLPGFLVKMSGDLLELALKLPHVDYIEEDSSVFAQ
Procedure, shortened: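 Biotinylated PCSK9 (20 nM) and His-tagged LDLR EGFa domain (20 nM) were incubated 2 h at room temperature with 5 nM Ulight-streptavidin and 5 nM Eu-anti-His in HEPES/NaCl/CaCl2 buffer with 0.01% BSA and 0.01% P20. TR-FRET was read; half-maximal inhibitory concentrations came from 4-parameter dose-response fits.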

PCSK9 [2] = target: T1, PCSK9 (Homo sapiens (Human), UniProt Q8NBP7); assay: PCSK9 Alexa FRET Standard assay (displacement of AlexaFluor647 tagged cyclic peptide Reagent A); conditions: PCSK9 Alexa FRET Standard assay, 0.5 nM PCSK9, 20 nM AF cyclic peptide Reagent A; read-out: IC50
T1 sequence (Q8NBP7 153-692): as the sequence (Q8NBP7 153-692) above
Procedure, shortened: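 TR-FRET displacement: 0.5 nM biotinylated PCSK9 with 1.25 nM Strep-Eu and 20 nM AlexaFluor-tagged cyclic peptide (final) in 50 mM HEPES pH 7.4, 0.15 M NaCl, 5 mM CaCl2, 0.01% BSA, 0.01% P20, ≥2 h at room temperature. IC50 from sigmoidal fit, converted to Ki via peptide KD; falling Eu counts flagged false positives.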

PCSK9 [3] = target: T1, PCSK9; assay: PCSK9 Alexa FRET Plus assay (displacement of AlexaFluor647 tagged cyclic peptide Reagent B); conditions: Alexa FRET Plus, 0.5 nM PCSK9, 960 nM AF cyclic peptide Reagent B; read-out: IC50
Procedure, shortened: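 TR-FRET displacement with final 0.5 nM biotinylated PCSK9, 1.25 nM Strep-Eu and 960 nM AlexaFluor-tagged cyclic peptide in HEPES pH 7.4, NaCl, CaCl2, BSA, P20; ≥2 h at room temperature. IC50 from sigmoidal fit, converted to Ki using peptide KD. Falling europium counts flagged false positives.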

Row | Structure (SMILES) | IC50 [1] | IC50 (PCSK9 [2]) | IC50 (PCSK9 [3])
1 | C[C@H]1NC(=O)[C@H](CCCCN)NC(=O)CCSCc2cccc(c2)CSCCNC(=O)[C@]2(C)CCCN2C(=O)[C@H](Cc2ccc(O)cc2)N(C)C(=O)[C@H](Cc2c[nH]cn2)NC(=O)[C@H](CC(=O)O)NC(=O)[C@H](Cc2c[nH]c3ccc(F)cc23)NC(=O)[C@H](Cc2c[nH]c3ccc(F)cc23)NC1=O [Compound 277] (cyclo(DH[NMeY][αMeP][X4]K[dA][Trp(5-F)][Trp(5-F)])) | 0.0001 to 0.1 µM | 0.00011 to 0.1 µM | 0.1 to 0.5 µM
2 | CC(=O)N[C@@H]1CCCNC(=O)c2ccc(cc2)CC(C(N)=O)NC(=O)[C@]2(C)CCCN2C(=O)[C@H](Cc2ccc(O)cc2)NC(=O)[C@H](Cc2cnc[nH]2)NC(=O)[C@H](CC(=O)O)NC(=O)[C@H](Cc2c[nH]c3ccc(F)cc23)NC(=O)[C@H](Cc2c[nH]c3ccc(F)cc23)NC(=O)CNC1=O (stereo partly drawn) [Compound 327] (Ac-[dOrn]G[Trp(5-F)][Trp(5-F)]DHY[αMeP][ξPhe(4-COOH)]-NH2; lactam 1-9) | 0.0001 to 0.1 µM | 0.00011 to 0.1 µM | 0.1 to 0.5 µM
3 | NCCCC[C@@H]1NC(=O)CCSCc2ccc(cc2)CS[C@H]2C[C@@H](C(N)=O)N(C2)C(=O)[C@H](Cc2ccc(O)cc2)NC(=O)[C@H](Cc2cnc[nH]2)NC(=O)[C@H](CC(=O)O)NC(=O)[C@H](Cc2c[nH]c3ccc(F)cc23)NC(=O)[C@H](Cc2c[nH]c3ccc(F)cc23)NC(=O)CNC1=O [Compound 328] ([Mpa]KG[Trp(5-F)][Trp(5-F)]DHY[X5]-NH2; thioether 1-9) | 0.0001 to 0.1 µM | 0.1 to 1 µM | 0.5 to 5 µM
4 | COc1ccc(C[C@@H]2NC(=O)[C@H](Cc3cnc[nH]3)NC(=O)[C@H](CC(=O)O)NC(=O)[C@H](Cc3c[nH]c4ccc(F)cc34)NC(=O)[C@H](Cc3c[nH]c4ccc(F)cc34)NC(=O)[C@@H](C)NC(=O)[C@H](CCCCN)NC(=O)[C@@H](NC(C)=O)CC(=O)NCCOc3ccc(cc3)C[C@@H](C(N)=O)NC(=O)[C@]3(C)CCCN3C2=O)cc1 [Compound 349] (Ac-DK[dA][Trp(5-F)][Trp(5-F)]DHY(Me)[αMeP][AEF]-NH2; lactam 1-10) | 0.0001 to 0.1 µM | 0.00011 to 0.1 µM | 0.1 to 0.5 µM
5 | C[C@@H]1NC(=O)CCCC(=O)NCc2ccc(cc2)C[C@@H](C(N)=O)NC(=O)[C@]2(C)CCCN2C(=O)[C@H](Cc2ccc(O)cc2)NC(=O)[C@H](Cc2cnc[nH]2)NC(=O)[C@H](CC(=O)O)NC(=O)[C@H](Cc2c[nH]c3ccc(F)cc23)NC(=O)[C@H](Cc2c[nH]c3ccc(F)cc23)NC(=O)CNC1=O [Compound 366] (AG[Trp(5-F)][Trp(5-F)]DHY[αMeP][Phe(4-CH2NH2)]-NH2; linker N-9 via Glutaryl) | 0.0001 to 0.1 µM | 0.00011 to 0.1 µM | 0.0001 to 0.1 µM
6 | NCCCC[C@@H]1NC(=O)CCSCc2cccc(c2)CSC[C@@H](C(N)=O)NC(=O)[C@@H]2C[C@H](Oc3ccccc3)CN2C(=O)[C@H](Cc2ccc(O)cc2)NC(=O)[C@H](Cc2cnc[nH]2)NC(=O)[C@H](CC(=O)O)NC(=O)[C@H](Cc2c[nH]c3ccc(F)cc23)NC(=O)[C@H](Cc2c[nH]c3ccc(F)cc23)NC(=O)CNC1=O [Compound 367] ([Mpa]KG[Trp(5-F)][Trp(5-F)]DHY[Pro(cis-4-OPh)]C-NH2; linker 1-10 via mXylylene) | 0.0001 to 0.1 µM | 0.1 to 1 µM | 0.5 to 5 µM
7 | C[C@@]12CCCN1C(=O)[C@H](Cc1ccc(O)cc1)NC(=O)[C@H](Cc1cnc[nH]1)NC(=O)[C@H](CC(=O)O)NC(=O)[C@H](Cc1c[nH]c3ccc(F)cc13)NC(=O)[C@H](Cc1c[nH]c3ccc(F)cc13)NC(=O)CNC(=O)[C@H](CCO)NC(=O)CCSCc1cccc(c1)CSC[C@@H](C(N)=O)NC2=O [Compound 376] ([Mpa][hSer]G[Trp(5-F)][Trp(5-F)]DHY[αMeP]C-NH2; linker 1-10 via mXylylene) | 0.0001 to 0.1 µM | 0.00011 to 0.1 µM | 0.1 to 0.5 µM
8 | CO[C@@H](C)[C@@H]1NC(=O)CCSCc2cccc(c2)CSC[C@@H](C(N)=O)NC(=O)[C@]2(C)CCCN2C(=O)[C@H](Cc2ccc(O)cc2)NC(=O)[C@H](Cc2cnc[nH]2)NC(=O)[C@H](CC(=O)O)NC(=O)[C@H](Cc2c[nH]c3ccc(F)cc23)NC(=O)[C@H](Cc2c[nH]c3ccc(F)cc23)NC(=O)CNC1=O [Compound 377] ([Mpa][aThr](Me)G[Trp(5-F)][Trp(5-F)]DHY[αMeP]C-NH2; linker 1-10 via mXylylene) | 0.0001 to 0.1 µM | 0.00011 to 0.1 µM | 0.1 to 0.5 µM
9 | COc1ccc(C[C@@H]2NC(=O)[C@H](Cc3cnc[nH]3)NC(=O)[C@H](CC(=O)O)NC(=O)[C@H](Cc3c[nH]c4ccc(F)cc34)NC(=O)[C@H](Cc3c[nH]c4ccc(F)cc34)NC(=O)[C@@H](C)NC(=O)[C@H](NC(C)=O)CCCCNC(=O)Cc3cccc(c3)CNC(=O)CC[C@@H](C(=O)O)NC(=O)[C@]3(C)CCCN3C2=O)cc1 [Compound 396] (Ac-[dK][dA][Trp(5-F)][Trp(5-F)]DHY(Me)[αMeP][γGlu][NHCH2(1,3-C6H4)CH2CO]; lactam 1-C) | 0.0001 to 0.1 µM | 0.00011 to 0.1 µM | 0.1 to 0.5 µM
10 | COc1ccc(C[C@@H]2NC(=O)[C@H](Cc3cnc[nH]3)NC(=O)[C@H](CC(=O)O)NC(=O)[C@H](Cc3c[nH]c4ccc(F)cc34)NC(=O)[C@H](Cc3c[nH]c4ccc(F)cc34)NC(=O)[C@@H](C)NC(=O)[C@H](NC(C)=O)CCCCNC(=O)Cc3ccc(cc3)CNC(=O)CC[C@@H](C(N)=O)NC(=O)[C@]3(C)CCCN3C2=O)cc1 [Compound 398] (Ac-[dK][dA][Trp(5-F)][Trp(5-F)]DHY(Me)[αMeP][isoGln][X7]; lactam 1-C) | 0.0001 to 0.1 µM | 0.00011 to 0.1 µM | 0.1 to 0.5 µM

Second part, the compound after the results:

Row | IC50 [1] | IC50 (PCSK9 [2]) | IC50 (PCSK9 [3]) | Structure (SMILES)
11 | 0.0001 to 0.1 µM | 0.00011 to 0.1 µM | 0.0001 to 0.1 µM | NCCCC[C@@H]1NC(=O)CCSCc2cccc(c2)CSC[C@@H](C(N)=O)NC(=O)[C@@H]2C[C@H](C(F)(F)F)CN2C(=O)[C@H](Cc2ccc(O)cc2)NC(=O)[C@H](Cc2c[nH]cn2)NC(=O)[C@H](CC(=O)O)NC(=O)[C@H](Cc2c[nH]c3ccc(F)cc23)NC(=O)[C@H](Cc2c[nH]c3ccc(F)cc23)NC(=O)CNC1=O [Compound 296] ([Mpa]KG[Trp(5-F)][Trp(5-F)]DHY[Pro(cis-4-CF3)]C-NH2; linker 1-10 via mXylylene)
12 | 0.0001 to 0.1 µM | 0.00011 to 0.1 µM | 0.0001 to 0.1 µM | COc1ccc(C[C@@H]2NC(=O)[C@H]([C@@H](C)OC)NC(=O)[C@H](CCC(=O)O)NC(=O)[C@H](Cc3c[nH]c4ccc(F)cc34)NC(=O)[C@H](Cc3cccc(CN)c3)NC(=O)[C@@H](C)NC(=O)[C@H](C)NC(=O)CCSCc3cccc(c3)CSCCNC(=O)[C@]3(C)CCCN3C2=O)cc1 [Compound 343] (cyclo(A[dA][Phe(3-CH2NH2)][Trp(5-F)]ET(Me)Y(Me)[αMeP][X4]))
13 | 0.0001 to 0.1 µM | 0.00011 to 0.1 µM | 0.1 to 0.5 µM | C[C@@]12CCCN1C(=O)[C@H](Cc1ccc(O)cc1)NC(=O)[C@H](Cc1c[nH]cn1)NC(=O)[C@H](CC(=O)O)NC(=O)[C@H](Cc1c[nH]c3ccc(F)cc13)NC(=O)[C@H](Cc1c[nH]c3ccc(F)cc13)NC(=O)CNC(=O)[C@H](CCCCN)NC(=O)CCSCc1cc(Cl)cc(c1)CSC[C@@H](C(N)=O)NC2=O [Compound 358] ([Mpa]KG[Trp(5-F)][Trp(5-F)]DHY[αMeP]C-NH2; linker 1-10 via X8)
14 | 0.0001 to 0.1 µM | 0.00011 to 0.1 µM | 0.0001 to 0.1 µM | CC(=O)N[C@H]1CCCCNC(=O)COc2ccc(cc2)C[C@@H](C(N)=O)NC(=O)[C@]2(C)CCCN2C(=O)[C@H](Cc2ccc(O)cc2)NC(=O)[C@H](Cc2cnc[nH]2)NC(=O)[C@H](CC(=O)O)NC(=O)[C@H](Cc2c[nH]c3ccc(F)cc23)NC(=O)[C@H](Cc2c[nH]c3ccc(F)cc23)NC(=O)CNC1=O [Compound 365] (Ac-KG[Trp(5-F)][Trp(5-F)]DHY[αMeP]Y-NH2; linker 1-9 via X2)
15 | 0.0001 to 0.1 µM | 0.00011 to 0.1 µM | 0.0001 to 0.1 µM | COc1ccc(C[C@@H]2NC(=O)[C@@H]([C@@H](C)O)NC(=O)[C@H](CCCCC(=O)O)NC(=O)[C@H](Cc3c[nH]c4ccc(F)cc34)NC(=O)[C@H](Cc3ccc(CN)cc3)NC(=O)[C@@H](C)NC(=O)[C@H](C)NC(=O)CCSCc3cccc(c3)CSCCNC(=O)[C@]3(C)CCCN3C2=O)cc1 [Compound 385] (cyclo(A[dA][Phe(4-CH2NH2)][Trp(5-F)][Nle(6-COOH)][d(aThr)]Y(Me)[αMeP][X4]))
